Positions of bridges follow the written chain, without caps; N, C: chain ends. Non-standard residues stand in square brackets, D forms with d. Residues, ends and D or L forms follow the SMILES beside them. Chains are numbered I, II in the order given. Gly(N-piperonyl) = O=C(O)CNCc1ccc2c(c1)OCO2; N(4-MeOBn)Gly = COc1ccc(CNCC(=O)O)cc1; Nrpe = C[C@@H](NCC(=O)O)c1ccccc1; Nlys = NCCCCNCC(=O)O; βAla = NCCC(=O)O
Key:
[1] = Annexin V competition on lipid ELISA; assay type: binding; details: ELISA-like, 100 nM Annexin V
Protocol: (§1) Multiple competition assays were conducted to determine whether PPS1 (or PPS1D1) competes with Annexin V, a known PS binding agent. […] Competition between Annexin V and PPS1 for binding to PS in liposomes using flow cytometry was evaluated. […] However, PPS1 directly binds PS. Also, PS-ligand binding may be much more complex than that of a typical protein-ligand binding. Typical protein ligand binding occurs via a defined binding pocket, which facilitates clear competition by other ligands that interact with the same binding pocket. But PS is a lipid in a fluid membrane, which has no defined macromolecular structure further complicating possible binding modes.
Lipids (Avanti Polar Lipids) were dissolved in chloroform at 10 μg/ml and coated on to Immulon 1B “U” bottom microtiter plates (ThermoFisher, MA). Chloroform was evaporated at room temp (in the hood) and plates were blocked with 200 μl of 1% BSA for 1 hour. Plates were washed with 3× PBS. Biotinylated PPS1D1 dissolved in blocking buffer was added and incubated for 1 hour at room temp. Plates were washed with 3× PBS and 2× Annexin binding buffer. […] Binding was detected with streptavidin-HRP (1:1000 in blocking buffer) followed by 100 μl OPD (Sigma-Aldrich, MO). The reaction was stopped with 100 μl 0.18M H2SO4 and absorbance was read at 490 nm using the spectrophotometer (Spectramax i3, Molecular Devices, CA).

[2] = Annexin V / PPS1 competition on liposomes by flow cytometry; assay type: binding; details: unlabeled Annexin V 50 nM
Protocol: as §1
Unlabeled Annexin V vs FITC-PPS1 competition. 0.1 mM liposomes (85 mol % POPC, 15 mol % DOPS) were incubated with incubated with 50 nM Annexin V in Binding Buffer (0.01 M HEPES/NaOH (pH 7.4), 0.14 M NaCl, and 2.5 mM CaCl2) with 3% BSA for lhour. FITC PPS1 was added and the solution was incubated for 1 hour at room temperature. The binding of FITC-PPS1 to liposomes was analyzed by BD Accuri™ C6 flow cytometer (Becton-Dickinson, NJ). All data were analyzed using BDAccuriC6 software.
Unlabeled PPS1 vs FITC-Annexin V competition. […] The binding of FITC-Annexin V to liposomes was analyzed by BD Accuri™ C6 flow cytometer (Becton-Dickinson, NJ). All data were analyzed using BDAccuriC6 software.

[3] = On-bead competition assay; assay type: binding; details: Annexin V at 10, 50 and 100 nM
Protocol: Experimental procedure 12: On-bead competition assay. PPS1 and PC462 were synthesized on Tentagel beads. Organic solvent was removed and the beads were washed with 3 times with PBS. The beads were then incubated with PBS containing 3% BSA for 1 hour at room temperature. These beads were then incubated with 0.1 mM liposomes (84 mol % POPC, 15 mol % DOPS and 1 mol % NBD) for 2 hours at room temperature. Beads containing liposomes were the washed with binding buffer 3 times. […] Beads were then washed with binding buffer and imaged using fluorescence Microscope (Olympus BX-53).

[4] = calcium-dependent; cited from earlier work
[5] = Propidium iodide test of cell lysis; assay type: cell-based; details: non-permeabilized cells
[6] = system: tumor vascular endothelium of subcutaneous HCC4017 tumors; experiment: In vivo vascular disrupting effect; design: species or system mice; details: 20 μg i.v., 24 hours
Protocol: The in vivo vascular disrupting effects of PPS1-D2 were explored. Mice bearing HCC4017 tumors growing subcutaneously were injected i.v. with 20 μg of PPS1-D2. Twenty four hours later, the tumors were removed, cryosectioned, and stained for CD31 to detect vascular endothelium. […] This dose can be calculated to give an initial blood concentration that is roughly 10-fold higher than needed for maximal lysis of PS-expressing cell in vitro.

[7] = Toxicity of PPS1-D2 to mice; assay type: in vivo
[8] = complexes with beta2-glycoprotein 1; cited from earlier work
breast cancer = details: cited from earlier work
[9] = system: non-small cell lung cancer (NSCLC); details: in combination with carboplatin and paclitaxel (11/17); cited from earlier work
H460 xenografts = experiment: Inhibition of growth of H460 lung cancer xenograft; assay type: in vivo, mice
Protocol: Whether PPS1D1 would inhibit tumor growth in a murine model was examined. H460 cells were implanted in nude mice. Tumors were allowed grow until it reach […]. These xenografts were then treated with a daily dose of […] in four different groups that consist of PPS1D1 alone, docetaxel alone, PPS1D1 and docetaxel together or with the control peptoid (PC462D1) alone. Docetaxel is a standard chemotherapeutic treatment for non-small cell carcinoma. The activity of PPSD1 and its ability to work as a combination treatment were examined. […] This effect was extremely potent and the tumor growth was completely controlled. […] It has been reported that chemotherapy and radiation therapy increase the PS flipping in tumor microenvironment. Therefore, Docetaxel might have helped improve binding of PPS1D1 on cancer cell surface that is now displaying an increased amount of PS to be targeted. After the standard chemotherapy and radiation therapy, the target PS is highly abundant for the drug to recognize and attack.
The effect of PPS1D1 on the growth of H460 xenografts implanted in NOD/SCID immunodeficient mice was examined. Immunodeficient animals were chosen to facilitate the growth of human tumor xenografts. […] Therapy with a control peptoid (PC462D1, 0.25 mg/mouse, 3×/week ip), PPS1D1 (0.25 mg/mouse, 3×/week ip), docetaxel (0.5 mg/kg, 2×/week, ip) or the combination of PPS1D1+docetaxel was initiated when tumors were ˜100 mm3 in volume. […] Tumor tissue was harvested after 4 weeks of therapy and assessed for cell proliferation and apoptosis by immunohistochemistry. […] It is clear from studies with bavituximab that standard chemotherapy (e.g., taxanes) increases the exposure of PS resulting in elevated binding of the PS targeting agent. A similar mechanism can underlie the enhanced activity of docetaxel and PPS1D1.
All animals were housed in a pathogen-free facility with continuous access to food and water. Mice were purchased from the core breeding facility at UT Southwestern. Six to eight-week-old female NOD/SCID mice were injected with 2.5×10^6 H460 cells subcutaneously. Tumor volume was followed by twice weekly measurements with Vernier calipers. Animals were randomized and treatment was initiated with mean tumor volume of each group was 100 mm3. Four different groups used were: (I) control PC462D1, (II) PPS1D1, (III) docetaxel, and (IV) combination of PPS1D1+docetaxel. Mice (n=8/group) were treated with PPS1D1 or PC462D1 in saline by ip injection at a dose of 0.25 mg/mouse, 3 times per week on a M-W-F schedule. Docetaxel from the UT Southwestern Clinical pharmacy was diluted in saline and delivered 2×/week ip at 5 mg/kg. Animals were sacrificed after 4 weeks of therapy. Tumor tissue was snap frozen, sectioned and stained with antibodies specific for phospho-Histone H3 (Millipore, #06-570) and cleaved caspase 3 (Cell Signaling, #9664). Reactivity was developed with appropriate fluorescently conjugated secondary antibodies (Jackson ImmunoResearch) and mounted with Prolong Gold with DAPI (Invitrogen), coverslipped and evaluated by fluorescence microscopy.

[10] = system: HCC4017, H460, HCC95, H1693, H1395 lung cancer cell lines; experiment: Cell staining with Hoechst 33342 and propidium iodide (membrane integrity); assay type: cell-based, human; details: 0.005% Benzalkonium chloride
Protocol: It was evaluated how PPS1D1 affects viability of these PS expressing cancer cell lines. While there are difficulties of narrowing down the exact mechanism of action of a compound targeting cell membrane lipids, whether PPS1D1 has any effect on cell membrane integrity was evaluated. Cells were treated with standard DNA staining dyes Propidium iodide (PI) and Hoechst 33342. While both bind DNA, only Hoechst is cell permeable. Therefore, when treating live cells only Hoechst will stain the nucleus while PI will stain the nucleus only if the cell membrane integrity is compromised. All the lung cancer cell lines and normal HBEC30KT cells were treated with these dyes in the presence of PPS1D1 (at 1 μM and 20 μM) or a control compound PC462D1 at 20 μM and evaluated fluorescence by microscopy without fixation. […] These observations indicate that 20 μM PPS1D1 is selectively cytotoxic to PS-positive lung cancer cells.
10,000 cells of HCC4017, H460, HCC95, H1693,H1395 and HBEC30KT were plated on chamber slides (Lab-Tek, Thermo Fisher, MA). On second day, cells were treated with PPS (1 μM and 20 μM), control PC462D1 (20 μM) and 0.005% Benzalkonium chloride (BAC) in RPMI medium with 10% FBS containing 3% BSA (KSFM media with 3% BSA for HBEC30KT). Chamber slides were washed with PBS three times. Cells were then stained with Hoechst 33342 (10 μg/ml) for 30 min in dark. Chamber slides were washed with 3× PBS. Cells were then stained with propidium iodide (1 mg/ml) for 15 mins. Cells were washed with 3× PBS and imaged using Fluorescence Microscope (Olympus BX-53).

In the case of “Annexin V: 35.8 kDa protein that binds PS in a calcium-dependent manner”, the “competition with PPS1D1 for binding to PS” value [1] is reported as “did not compete”, the “competition with FITC-PPS1 binding to liposomes” value [2] is reported as “did not compete” and the “removal of liposomes from PPS1 beads” value [3] is reported as “None of these conditions were able to remove liposomes from beads”. For the same compound, the “affinity for PS” value [4] was “nanomolar affinity”.

With `COc1ccc(CN(CC(=O)N(CCCCN)CC(=O)N[C@@H](CCCCN)C(=O)N[C@H](CCCCN)C(=O)N[C@@H](CCSC)C(=O)NCCC(=O)NCCCC[C@H](NC(=O)CCNC(=O)[C@H](CCSC)NC(=O)[C@@H](CCCCN)NC(=O)[C@H](CCCCN)NC(=O)CN(CCCCN)C(=O)CN(Cc2ccc(OC)cc2)C(=O)CN(C(=O)CN(Cc2ccc3c(c2)OCO3)C(=O)CN[C@H](C)c2ccccc2)[C@H](C)c2ccccc2)C(N)=O)C(=O)CN(C(=O)CN(Cc2ccc3c(c2)OCO3)C(=O)CN[C@H](C)c2ccccc2)[C@H](C)c2ccccc2)cc1` [PPS1-D2] (I: H-[Nrpe][Gly(N-piperonyl)][Nrpe][N(4-MeOBn)Gly][Nlys]K[dK]M[βAla]K-NH2 / II: H-[Nrpe][Gly(N-piperonyl)][Nrpe][N(4-MeOBn)Gly][Nlys]K[dK]M[βAla]; amide I:10-II:C; N-terminus assumed) the “nuclear staining by propidium iodide” value [5] was “nuclear staining happens only when PPS1-D2 is treated”, the “disruption of tumor vascular endothelium (CD31)” value [6] was “disrupted tumor endothelium” and the signs of toxicity ([7]; mice treated with 50 μg) was “no signs of toxicity”. The MTD ([7]; mouse, in vivo) was 2 to 4 mg/kg.

In the case of “Bavituximab: human-mouse chimeric antibody targeting PS via beta2-glycoprotein 1”, the Kd [8] is given as 0.4 nM, the objective response (breast cancer; combination of bavituximab and docetaxel, phase II (28/46)) is given as 61% and the objective response [9] is given as 65%.

In the case of `CC(=O)O[C@@]12CO[C@@H]1C[C@H](O)[C@@]1(C)C(=O)[C@H](O)C3=C(C)[C@@H](OC(=O)[C@H](O)[C@@H](NC(=O)OC(C)(C)C)c4ccccc4)C[C@@](O)([C@@H](OC(=O)c4ccccc4)[C@H]21)C3(C)C` [docetaxel, reference compound], the “tumor growth (tumor volume vs days post therapy initiation)” value (H460 xenografts; H460 in NOD/SCID mice, peptoids 0.25 mg/mouse 3x/week ip, docetaxel 0.5 mg/kg 2x/week ip) is given as “slowed tumor growth”, the tumor size reduction (H460 xenografts; H460 in nude mice, daily dose of 0.5 mg/mL) is given as “equally effective in reducing the size of the tumors” and the response rate (breast cancer; docetaxel alone, separate study) is given as 41%.

With “Benzalkonium chloride [BAC, reference compound]” the “PI staining of cells” value [10] was “PI-positive nuclei”.

Reference: patent US10849875B2, “Cancer specific lipid targeted peptidomimetics” (University of Houston System, priority 2015, dated 2020)
